In ChEMBL document CHEMBL1201862, “PubChem BioAssay data set” (2004):
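Protocol summary: plate cells (96-well), add compound at 5 concentrations, incubate 48 h, interpolate endpoints linearly. Abbreviation: GI50, concentration required for 50% inhibition of growth.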 Calls of active or inactive are those of the source. No stated cut-off is given here; in the data, active = GI50 up to about 1.1 µM and inactive = higher.

Experiments:
Experiment in all cases: NCI anticancer screen, dose series, 48 h
[1] = test system: UACC-257
[2] = test system: SNB-19
[3] = test system: HL-60
[4] = test system: NCI-H522
[5] = test system: KM12
[6] = test system: NCI-H226
[7] = test system: U-251
[8] = test system: SK-MEL-28
[9] = test system: RPMI-8226
[10] = test system: Malme-3M
[11] = test system: HOP-62
[12] = test system: IGROV-1
[13] = test system: UO-31
[14] = test system: EKVX
[15] = test system: SF-295
[16] = test system: HOP-92
[17] = test system: LOX IMVI
[18] = test system: CCRF-CEM
[19] = test system: K562
[20] = test system: MOLT-4

Measured: GI50

COc1cc([C@@H]2c3cc4c(c(O[C@@H]5O[C@H]6CO[C@@H](C)O[C@H]6[C@H](O)[C@@H]5O)c3C[C@H]3COC(=O)[C@@H]32)OCO4)cc(OC)c1O
inactive: [1] 5.93 µM | [2] 23.7 µM | [3] 4.41 µM | [4] 2.54 µM | [5] 8.75 µM | [6] 3.75 µM | [7] 8.17 µM | [8] 5.81 µM | [9] 47.5 µM | [10] > 29.9 µM | [11] 27.2 µM | [12] 8.61 µM | [13] 45.6 µM | [14] 5.55 µM | [15] 3.48 µM | [16] 25.7 µM | [17] 4.73 µM | [18] 11.9 µM | [19] 4.53 µM | [20] 10.6 µM

O=S(=O)(O)c1cc2ccc1/C=C\c1ccc(cc1S(=O)(=O)O)/N=N\c1ccc(c(S(=O)(=O)O)c1)/C=C\c1ccc(cc1S(=O)(=O)O)/N=N\2
inactive: [1] > 100 µM | [2] > 100 µM | [3] > 100 µM | [4] > 100 µM | [5] > 100 µM | [6] > 100 µM | [7] > 100 µM | [8] > 100 µM | [9] > 100 µM | [10] > 100 µM | [11] > 100 µM | [12] > 100 µM | [13] > 100 µM | [14] > 100 µM | [15] > 100 µM | [16] > 100 µM | [17] > 100 µM | [18] > 100 µM | [19] > 100 µM | [20] > 100 µM

Cc1cccc(N2C(=O)C3c4[nH]c5ccc(C)cc5c4C4CCC(C(C)(C)C)CC4C3C2=O)c1 (stereo not given)
inactive: [1] 46.3 µM | [2] 25.2 µM | [3] 17.7 µM | [4] 19.9 µM | [5] 15.8 µM | [6] 17.1 µM | [7] 23.6 µM | [8] 42.6 µM | [9] 15.5 µM | [10] 24.3 µM | [11] 15.8 µM | [12] 26.5 µM | [13] 43.4 µM | [14] 10.4 µM | [15] 19.4 µM | [16] 15.7 µM | [17] 17.2 µM | [18] 21.4 µM | [19] 23.9 µM | [20] 8.97 µM

CCOC(=O)C(O)(NC(=O)c1ccc(F)cc1)C(F)(F)F (stereo not given)
inactive: [1] > 100 µM | [2] > 100 µM | [3] > 100 µM | [4] > 100 µM | [5] > 100 µM | [6] > 100 µM | [7] > 100 µM | [8] > 100 µM | [9] > 100 µM | [10] > 100 µM | [11] > 100 µM | [12] 57 µM | [13] > 100 µM | [14] > 100 µM | [15] > 100 µM | [16] > 100 µM | [17] > 100 µM | [18] > 100 µM | [19] > 100 µM | [20] > 100 µM

CC(/C=N/N=C(N)N)=N\N=C(N)N
inactive: [1] 140 µM | [2] 36.1 µM | [3] 7.24 µM | [4] 29.7 µM | [5] 2.83 µM | [6] 38.5 µM | [7] 18.5 µM | [8] 64.6 µM | [9] 12.1 µM | [10] 33.9 µM | [11] 6.58 µM | [12] 279 µM | [13] 9.82 µM | [14] 29.1 µM | [15] 92.3 µM | [16] 3.43 µM | [17] 4.18 µM | [18] 4.73 µM | [19] 8.73 µM | [20] 9.25 µM

CCOC(C)OC1CC(n2cc(C)c(=O)[nH]c2=O)OC1CO (stereo not given)
inactive: [1] > 100 µM | [2] > 100 µM | [3] > 100 µM | [4] > 100 µM | [5] > 100 µM | [6] > 100 µM | [7] > 100 µM | [8] > 100 µM | [9] > 100 µM | [10] > 100 µM | [11] > 100 µM | [12] > 100 µM | [13] > 100 µM | [14] > 100 µM | [15] > 100 µM | [16] > 100 µM | [17] > 100 µM | [18] 82.6 µM | [19] > 100 µM | [20] > 100 µM
